Measured values: ChEMBL document CHEMBL1811842, “Synthesis and evaluation of biotinylated sansalvamide A analogs and their modulation of Hsp90” (Bioorg Med Chem Lett, 2011)
Active and inactive are the calls of the source. No cut-off for these calls is given here.

biological target: Heat shock protein HSP90 (Homo sapiens) (UniProt P07900+P08238); test: Binding affinity to human HSP90-N-Middle Domain expressed in BL21 Escherichia coli after 2 hrs using silver staining by Pull down assay

Activity, active:
CC(C)C[C@@H]1NC(=O)[C@H](CCCCNC(=O)OCc2ccccc2)NC(=O)[C@H](CCCCNC(=O)CCOCCOCCOCCOCCNC(=O)CCCC[C@@H]2SC[C@@H]3NC(=O)N[C@@H]32)NC(=O)[C@@H](Cc2ccccc2)N(C)C(=O)[C@H](C(C)C)NC1=O
CC(C)[C@@H]1NC(=O)[C@H](CCCCNC(=O)CCOCCOCCOCCOCCNC(=O)CCCC[C@@H]2SC[C@@H]3NC(=O)N[C@@H]32)NC(=O)[C@H](CCCCNC(=O)OCc2ccccc2)NC(=O)[C@H](Cc2ccccc2)NC(=O)[C@@H](Cc2ccccc2)N(C)C1=O
CC(C)C[C@@H]1NC(=O)[C@H](CCCCNC(=O)OCc2ccccc2)NC(=O)[C@H](Cc2ccccc2)NC(=O)[C@@H](Cc2ccccc2)N(C)C(=O)[C@H](CCCCNC(=O)CCOCCOCCOCCOCCNC(=O)CCCC[C@@H]2SC[C@@H]3NC(=O)N[C@@H]32)NC1=O
